Data reported in patent publication US9138421B2, “Platinum compounds for treating cell proliferative diseases, preparation method and use thereof” (priority 2011, dated 2015).

Key:
normal mice = experiment: Acute toxic effect of platinum complex on normal mice (LD50); type: in vivo, Kunming mice; conditions: single intravenous administration in 5% glucose, 14 days observation, Bliss method
Procedure: Test 1: Acute Toxic Effect of Platinum Complex on Normal Mice
Embodiment platinum compound was dissolved with 5% glucose solution. […] Mortality and toxicity were observed after administration.

lung cancer H292 = experiment: MTT cytotoxicity, lung cancer H292; type: cell-based; conditions: n = 6
Procedure: (§1) The toxic action of Embodiment platinum containing compounds was observed on tumor cells by MTT colorimetric method. Several kinds of tumor cells in exponential growth phase were prepared into single cell suspension, inoculated on 96 pore plat at the density of 4×10^4/hole, cultivated for 24 hours to enable to adhere to wall with 1640 culture medium containing 10% fetal calf serum (complete medium) at 37° C.; the final culture volume was 100 μl. Cell morphology was observed after culture for 24 hours.

[1] = system: Pulmonary epithelial cell BEAS-2B; experiment: MTT cytotoxicity, pulmonary epithelial cell BEAS-2B; type: cell-based; conditions: n = 6
Procedure: as §1

lung cancer Lewis = experiment: MTT cytotoxicity, lung cancer Lewis; type: cell-based; conditions: n = 6
Procedure: as §1

colon cancer SW480 = experiment: MTT cytotoxicity, colon cancer SW480; type: cell-based; conditions: n = 6
Procedure: as §1

[2] = system: colon cancer SW480 cell line; experiment: In vivo antitumor activity, colon cancer SW480 in nude mice (1); conditions: SW480, 4 mg/kg, every other day, 4 times, tumor weighed after 10 days
From the text: The calculation formula of tumor inhabitation rate is: […]

[3] = system: colon cancer SW480 cell line; experiment: In vivo antitumor activity, colon cancer SW480 in nude mice (2), dose series; conditions: 3 days, tumor weighed 24 hours after drug discontinuance
testis cell ST = experiment: MTT cytotoxicity, testis cell ST; type: cell-based; conditions: n = 6
Procedure: as §1

gastric cancer MGC803 = experiment: MTT cytotoxicity, gastric cancer MGC803; type: cell-based; conditions: n = 6
Procedure: as §1

esophagus cancer ECA109 = experiment: MTT cytotoxicity, esophagus cancer ECA109; type: cell-based; conditions: n = 6
Procedure: as §1

[4] = system: lung cancer Lewis cell line; experiment: In vivo antitumor activity, lung cancer Lewis in nude mice; conditions: 15 mg/kg, every 2 days, 4 times, end 30 days after inoculation
Solubility in water = conditions: in water

| Compound | LD50 value (normal mice) | IC50 (lung cancer H292) | IC50 [1] | IC50 (lung cancer Lewis) | IC50 (colon cancer SW480) | tumor inhibition rate (%) (x ±SD) [2] | tumor inhibition rate (%) (x ±SD) ([3]; SW480, 3 mg/kg) | tumor inhibition rate (%) (x ±SD) ([3]; SW480, 5 mg/kg) | tumor inhibition rate (%) (x ±SD) ([3]; SW480, 10 mg/kg) | tumor inhibition rate (%) (x ±SD) ([3]; SW480, 15 mg/kg) | IC50 (testis cell ST) | IC50 (gastric cancer MGC803) | IC50 (esophagus cancer ECA109) | tumor inhibition rate (%) [4] | solubility (Solubility in water) |
| --- | --- | --- | --- | --- | --- | --- | --- | --- | --- | --- | --- | --- | --- | --- | --- |
| [2-(3-di-n-propylamine propyl)-malonato].[cis-diamine] platinum (II) mesylate [compound 8] | 0.806 mmol/kg | 201 µM | 49 µM | 57 µM | 20 µM | 29.7 ± 8.81 % | 40.4 ± 5.02 % | 73.6 ± 9.18% | 74.4 ± 12.25% | 82.8 ± 10.07 % |  |  |  |  |  |
| [2-(2-dimethylamine ethyl)-malonato].[cis-trans-1,2-diaminomethylcyclobutane]platinum (II) phosphate [compound 25] | 0.520 mmol/kg | 53 µM |  |  |  |  |  |  |  |  | 114 µM | 341 µM | 196 µM | 80.1 ± 9.65 % |  |
| CCCN(CCC)CCC1C(=O)[O][Pt]([NH2])([NH2])[O]C1=O.O=P(O)(O)O [compound 7, 2-(2-di-n-propylamineethyl)-malonic-cis-diamino platinum (II) phosphate] |  | 124 µM | 75 µM | 128 µM | 51 µM | 28.5 ± 7.65 % |  |  |  |  |  |  |  |  |  |
| CCN(CC)CCC1C(=O)[O][Pt]2([NH]C3CCC(CC3)[NH]2)[O]C1=O.O=P(O)(O)O (stereo not drawn) [compound 27, [2-(2-diethylamine ethyl)-malonato].[cis-1,4-cyclohexyldiamine] platinum (II) phosphate] | 0.729 mmol/kg | 158 µM |  |  |  |  |  |  |  |  | 360 µM | 453 µM | 350 µM | 71.3 ± 10.54% | 145 mg/mL |
| [2-(2-diethylamine ethyl)-malonato].[cis-1,3-(2,2-(4-oxacyclohexyl))-propyldiamine]platinum (II) phosphate [compound 28] | 0.767 mmol/kg | 99 µM |  |  |  |  |  |  |  |  | 138 µM | 162 µM | 256 µM | 73.3 ± 17.92% |  |
| 2-(2-diethylamine ethyl)-malonic.cis-1,4-(trans-2,3-cyclobutyl)-butanediamine platinum (II) phosphate [compound 26] |  | 136 µM |  |  |  |  |  |  |  |  | 312 µM | 234 µM | 163 µM | 72.4 ± 16.78% |  |
